Measurements published in patent US20150196500A1, “Treatment of Mitochondria-Related Diseases and Improvement of Age-Related Metabolic Deficits” (PHILERA NEW ZEALAND LIMITED, priority 2005, published 2015).
Entries after “also recorded” stand apart in the source; their conditions may differ. Like-named read-outs stand apart in the source and are kept apart here.

Tests used:
[1] = system: mitochondria isolated from hearts of obese ZDF rats and lean littermates; assay type: cell-based, rat
[2] = system: cytochrome c release from mitochondria isolated from lean (non-diabetic) ZDF rats; experiment: Cytochrome c release from isolated mitochondria, Western blot; assay type: cell-based, rat; conditions: for cytochrome c release into supernatant: 5 mM alone, 30 min incubation
[3] = system: citrate synthase in mitochondria isolated from lean (non-diabetic) ZDF rats; experiment: Residual citrate synthase activity in mitochondrial pellets (marker of inner membrane integrity); assay type: cell-based, rat
Procedure: An enzyme assay was then used to evaluate the mitochondrial pellets to determine the contents of the matrix protein citrate synthase in order to evaluate the integrity of the mitochondria after the respective incubations. Citrate synthase activity was determined according to the methods decscribed in Newsholme and Crabtree, J. Exp. Zoo. 239(2): 159-67 (1986). In brief, frozen mitochondrial pellets were resuspended in a reaction mixture containing 50 mM Tris-HCl (pH8.0), 0.1 mM acetyl coenzyme A and 0.2 mM 5,5′-dithiobis-(2-nitrobenzoic acid) (DTNB). Reactants were incubated for five minutes prior to measurement and the assay started by the addition of 5 mM oxaloacetate. Absorbance of DTNB was then followed at 412 nm and units were calculated relative to soluble protein using the biccichonic acid method (BCA, Pierce) with bovine serum albumin as standard.

[4] = system: electron transport chain complexes I to V of left ventricle mitochondria; conditions: rat, in vivo
Procedure: Male Wistar rats (starting body weight from about 200 to about 250 g) were maintained on Teklad TB 2108 (Harlan UK) rat chow and tap water ab libitum. At eight weeks the rats were randomized into two groups: control and diabetic (STZ). Rats were made diabetic by injection with 60 mg/kg STZ and the control rats were given a corresponding amount of 0.9% sodium chloride.
The control groups received Milli-Q water ab libitum during the corresponding period. At the end of the eleven week treatment period, rats were anaesthetized with isoflurane, the abdominal cavity was opened and a catheter inserted into the vena cava. Approximately 1 mL of blood was removed for future analysis and 10000 U/Kg heparin infused. […]
Fiber respiration was then measured in a respirometer at 30° C. at high resolution using Clark-type electrodes and integrated software that was used for data acquisition and analysis (DatLab 4, Oroboros, Oxygraph; Innsbruck, Austria). […] Respiratory rates (oxygen fluxes) were expressed as pmol O2. […]
Respiratory flux rates through complex I (GM2 and GM3), complexes I and II (GMS3) and II (S3) were determined to measure the intactness of the individual complexes (GM3 and S3), and to estimate maximal flux rates through the electron transport chain.

[5] = in the presence of 5 mM spermine

SMILES	change in mitochondrial volume ([1]; 0-5 mM, no CaCl2, 30 minutes, diabetic or control mitochondria)	effect on swelling at concentrations above 0.625 mM ([1]; 150 μM CaCl2, mitochondria from obese and lean rats)	cytochrome c release into supernatant [2]	cytochrome c release on co-incubation with 5 mM spermine ([2]; 5 mM spermine plus test polyamine)	concentration dependence of diminished cytochrome c release ([2]; […] vs 5 mM, with 5 mM spermine)	residual citrate synthase activity ([3]; 5 mM alone, after 30 min)	citrate synthase activity in spermine treated mitochondria [3, 5]	relative potency in improving residual citrate synthase activity [3, 5]	change in mitochondrial volume [1]	effect on swelling at concentrations above 0.625 mM [1]	relative inhibition of Ca2+ induced swelling among the three polyamines [1]	incubation time to maximum release of cytochrome c ([2]; data not shown) [min]	residual citrate synthase activity ([3]; 5 mM alone)	residual citrate synthase activity ([3]; lower concentrations than 5 mM)	cytochrome C oxidase flux (TMPD plus ascorbate) [4]	respiration flux rates of control treated mitochondria [4]
NCCCCNCCCN [spermidine]	no detectable change in mitochondrial volume	continued to have a protective effect; also recorded: continue to protect mitochondria from swelling	caused cytochrome c release at 5 mM, albeit less than in the case of spermine	reduced, though to a lesser degree; also recorded: diminished cytochrome c release	less potent than when 5 mM was used	increased amounts of residual citrate synthase activity compared to control samples	improved citrate synthase activity, although not as effectively; also recorded: capable of improving residual citrate synthase activity	markedly less potent than triethylenetetramine dihydrochloride								
NCCCNCCCCNCCCN [spermine]			release of large amounts of cytochrome c						led to swelling of mitochondria	induced swelling; also recorded: appears to induce swelling	greatest inhibition of swelling	30	rapid loss of citrate synthase activity	less severe impact on the residual citrate synthase activity		
NCCNCCNCCN.O=C(O)CCC(=O)O.O=C(O)CCC(=O)O [triethylenetetramine disuccinate]															significant improvement in cytochrome C oxidase	No significant effect
